We go through 21 compounds from ChEMBL document CHEMBL4706500, “Identification of dibucaine derivatives as novel potent enterovirus 2C helicase inhibitors: In vitro, in vivo, and combination therapy study” (Eur J Med Chem, 2020).

The nature of data set [1]: Selectivity index, ratio of CC50 for human RD cells infected with Enterovirus A71 to EC50 for Enterovirus A71 infected in human RD cells. It counts as toxicity, cell-based. The note with it: read-out: Selectivity Index.
Data set [2] concerns RD. The data set can be described thus: Cytotoxicity against human RD cells infected with Enterovirus A71 assessed as reduction in cell viability measured by CCK-8 assay. It counts as functional.
For data set [3], the system named is Enterovirus A71. The data set can be described thus: Antiviral activity against Enterovirus A71 infected in human RD cells assessed as inhibition of viral replication measured by CCK-8 assay. Particulars: Enterovirus A. It counts as functional, organism-based. In general terms: Tetrazolium dyes change colour on reduction, which living cells bring about.
The test system of data set [4] is Enterovirus A71. The experiment in a line: Antiviral activity against Enterovirus A71 infected in human RD cells assessed as inhibition of viral replication measured after 48 hrs by plaque assay. The format is functional, organism-based.
The subject of data set [5] is Enterovirus A71. The experiment in a line: Antiviral activity against Enterovirus A71 infected in human RD cells using HEX-labelled RNA as substrate assessed as increase in accumulation of 2C at 4.95 uM measured after 8hpi by gel based flourescence assay. The format is functional, organism-based.
In data set [6] the test system is Enterovirus A71. The experiment in a line: Antiviral activity against Enterovirus A71 infected in African green monkey Vero cells assessed as reduction in viral RNA titer levels at early stage of life cycle at 3.2 uM treated 12 hpi measured upto 8 hrs by time of addition assay. The format is functional, organism-based. Particulars: time hrs <=8.
Data set [7] deals with Enterovirus A71. The data set can be described thus: Antiviral activity against Enterovirus A71 infected in human RD cells assessed as inhibition of VP1 expression measured after 24 hrs by Western blot assay. It counts as functional, organism-based.
Data set [8] concerns Enterovirus A71. The experiment in a line: Antiviral activity against EV-A71 GZ-C11 infected in KM mouse assessed as improvement in survival rate administered 6 mg/kg, po bid for 4 days starting 6 hrs post infection measured on day 14 (reference value: 30%). The format is functional. The note with it: Enterovirus A, 96 h, time 4 day.
Data set [9] relates to Enterovirus A71. The experiment in a line: Antiviral activity against EV-A71 GZ-C11 infected in KM mouse assessed as decrease in viral infection clinical symptoms administered 6 mg/kg, po bid for 4 days treatment started 6 hrs post infection measured on day 14 relative to control. It counts as functional, organism-based. Particulars: time 14.0 day.
The test system of data set [10] is Enterovirus A71. The experiment in a line: Antiviral activity against Enterovirus A71 at early stage of life cycle infected in African green monkey Vero cells assessed as VP1 expression at 3.2 uM treated 12 hpi measured upto 8 hrs by time of addition assay. The format is functional, organism-based. Particulars: time hrs <=8.
For data set [11], the system named is Enterovirus A71. The data set can be described thus: Antiviral activity against EV-A71 GZ-C11 infected in KM mouse assessed as improvement in survival rate administered 4 mg/kg, po bid for 4 days starting 6 hrs post infection measured on day 14 (reference value: 30%). The format is functional. The note with it: Enterovirus A, 96 h, time 4 day.
For data set [12], the system named is RD. The data set can be described thus: Inhibition of 2C ATPase helicase activity in Enterovirus A71 infected in human RD cells measured by gel electrophoresis method. The format is cell-based.
The test system of data set [13] is Enterovirus A71. The experiment in a line: Antiviral activity against EV-A71 GZ-C11 infected in KM mouse assessed as prevention of death administered in presence of emetine at 6 mg/kg, po. It counts as functional, organism-based.
Data set [14] relates to Enterovirus A71. The experiment in a line: Antiviral activity against Enterovirus A71 infected in African green monkey vero cells assessed as down regulation of VP1 expression measured after 24 hrs by immunofluorescence assay. It counts as functional, organism-based.
Data set [15] relates to Enterovirus A71. The data set can be described thus: Antiviral activity against Enterovirus A71 infected in human RD cells using HEX-labelled RNA as substrate assessed as inhibition of dsRNA unwinding by measuring accumulation of dsRNA at 4.95 uM treated 8 hpi by gel based flourescence assay. It counts as functional, organism-based.
Data set [16] has as its system Enterovirus A71. The experiment in a line: Antiviral activity against Enterovirus A71 at early stage of life cycle infected in human RD cells assessed as VP1 expression at 3.2 uM treated 12 hpi measured upto 8 hrs by time of addition assay. It counts as functional, organism-based. Particulars: time hrs <=8.
Data set [17] is described as follows: Toxicity in 14 day suckling KM mouse assessed as changes in weight growth at 6 mg/kg, po bid for 4 successive days measured on day 12 relative to control. The format is organism-based. The note with it: in vivo, 288 h, time 12 day.
The test system of data set [18] is Enterovirus A71. The data set can be described thus: Antiviral activity against Enterovirus A71 infected in human RD cells assessed as inhibition of 2C expression measured after 24 hrs by Western blot assay. It counts as functional, organism-based.
The test system of data set [19] is Enterovirus A71. The data set can be described thus: Antiviral activity against Enterovirus A71 infected in human RD cells using HEX-labelled RNA as substrate assessed as inhibition of dsRNA unwinding by measuring accumulation of dsRNA at 0.56 uM treated 8 hpi by gel based flourescence assay. The format is functional, organism-based.

Molecules are shown by their SMILES. Active and inactive are the calls of the source. The calls are words filed in the database; no cut-off is given here.

Consider `CCCOc1cc(C(=O)NCCN(C)C)c2ccccc2n1`, for which the selectivity ratio in [1] was more than 70. For the same compound, in the data set with RD [2], the CC50 is more than 111 µM. Also, in the data set on Enterovirus A71 [3], the EC50 was determined as 1.58 µM.

For `CCCNC(=O)c1cc(OCCC)nc2ccccc12`, in the data set with Enterovirus A71 [3], the EC50 is more than 100 µM.

Turning to `CCCOc1cc(C(=O)NCCN(CC)CC)c2ccccc2n1`, in [1], the selectivity ratio is more than 42.7. Further, in the data set on RD [2], the CC50 is more than 101 µM. For the same compound, the concentration for a half-maximal effect (EC50) with Enterovirus A71 [3] came to 2.37 µM.

Consider `CCOc1cc(C(=O)NCCN(C)C)c2ccccc2n1`, for which the selectivity ratio in data set [1] was determined as 31.9. Besides, the CC50 in the data set with RD [2] was found to be 116 µM. In addition, the 50% effective concentration (EC50) in the data set with Enterovirus A71 [3] was found to be 3.62 µM.

In the case of `CCCCOc1cc(C(=O)NCCN(C)C)c2ccccc2n1`, the outcome in the data set on Enterovirus A71 [4], in the data set on Enterovirus A71 [5], with Enterovirus A71 [6], with Enterovirus A71 [7], in the data set with Enterovirus A71 [9] and with Enterovirus A71 [10] was Active. For the same compound, the result with Enterovirus A71 [13], in the data set on Enterovirus A71 [14], with Enterovirus A71 [15], in the data set with Enterovirus A71 [16] and in the data set on Enterovirus A71 [18] was Active. Further, the selectivity ratio in data set [1] was 85.4. Also, the survival at 6 mg/kg in the data set with Enterovirus A71 [8] was 67%. For the same compound, the survival at 4 mg/kg in the data set on Enterovirus A71 [11] was 30%. In addition, in the data set with RD [12], the inhibition entry is “Active”. The CC50 with RD [2] is 106 µM. In addition, in the data set with Enterovirus A71 [3], the EC50 amounted to 1.24 µM. In addition, the Activity result in data set [17] is “Non-Toxic”.

For `CC(C)CNC(=O)c1cc(OC(C)C)nc2ccccc12`, in data set [1], the selectivity ratio was more than 2. Also, the CC50 in the data set with RD [2] is more than 116 µM. For the same compound, the EC50 in the data set with Enterovirus A71 [3] turned out to be 58.2 µM.

`CCN(CC)CCNC(=O)c1cc(OC)nc2ccccc12`: the selectivity ratio in data set [1] was more than 4. Further, in the data set on RD [2], the CC50 was more than 111 µM. In addition, the EC50 in the data set with Enterovirus A71 [3] stood at 27.7 µM.

Turning to `CCOc1cc(C(=O)NCCN(CC)CC)c2ccccc2n1`, in [1], the selectivity ratio was more than 42.7. Moreover, the CC50 with RD [2] is more than 106 µM. For the same compound, in the data set with Enterovirus A71 [3], the EC50 came to 2.48 µM.

Consider `CC(C)S(=O)(=O)n1c(N)nc2ccc(/C(=N/O)c3ccccc3)cc21` [ENVIROXIME], for which the selectivity ratio in [1] was determined as 200. Besides, the result in the data set with Enterovirus A71 [19] was inactive. Also, the CC50 in the data set on RD [2] is 28 µM. Further, the EC50 with Enterovirus A71 [3] came out at 0.14 µM.

For `CCCCOc1cc(C(=O)NCCN2CCCCC2)c2ccccc2n1`, the CC50 in the data set on RD [2] was found to be 93.8 µM. Besides, the concentration for a half-maximal effect (EC50) in the data set on Enterovirus A71 [3] was 1.47 µM.

Take `CCCCOc1cc(C(=O)NCCCN(C)C)c2ccccc2n1`: the EC50 with Enterovirus A71 [3] stood at 100 µM.

For `CCCCCCOc1cc(C(=O)NCCN(C)C)c2ccccc2n1`, the selectivity ratio in data set [1] was 16. In addition, the CC50 in the data set with RD [2] was 36.4 µM. In the data set on Enterovirus A71 [3], the EC50 came to 2.27 µM.

As for `CCCCOc1cc(C(=O)NCCN2CCCC2)c2ccccc2n1`, the selectivity ratio in data set [1] is more than 64.1. The CC50 in the data set with RD [2] is more than 97.7 µM. Besides, in the data set on Enterovirus A71 [3], the EC50 is 1.53 µM.

With `CCCCCOc1cc(C(=O)NCCN(C)C)c2ccccc2n1`, the selectivity ratio in [1] is 48. Besides, in the data set with RD [2], the CC50 stood at 75.9 µM. Further, in the data set on Enterovirus A71 [3], the EC50 worked out at 1.58 µM.

`CCCNC(=O)c1cc(OCC)nc2ccccc12`: the selectivity ratio in data set [1] was more than 34.8. Further, the half-maximal cytotoxic concentration (CC50) with RD [2] was more than 70.2 µM. In addition, in the data set with Enterovirus A71 [3], the EC50 worked out at 2.02 µM.

`CCCCOc1cc(C(=O)NCCN(CC)CC)c2ccccc2n1` [DIBUCAINE]: the selectivity ratio in data set [1] is more than 42.7. In the data set with RD [2], the CC50 is more than 97 µM. Moreover, the EC50 with Enterovirus A71 [3] came out at 2.27 µM.

With `CCCCCOc1cc(C(=O)NCCN(CC)CC)c2ccccc2n1`, in data set [1], the selectivity ratio turned out to be 6. Besides, the CC50 in the data set on RD [2] amounted to 35 µM. In addition, in the data set with Enterovirus A71 [3], the EC50 is 5.83 µM.

Take `CCOc1cc(C(=O)NCC(C)C)c2ccccc2n1`: in the data set on Enterovirus A71 [3], the EC50 was more than 100 µM.

Turning to `CCCCOc1cc(C(=O)NCCCN(CC)CC)c2ccccc2n1`, in [1], the selectivity ratio worked out at 64. The EC50 with Enterovirus A71 [3] came out at 100 µM.

As for `CCCOc1cc(C(=O)NCC(C)C)c2ccccc2n1`, the selectivity ratio in data set [1] stood at 1.5. In the data set with RD [2], the CC50 came out at 87.3 µM. Moreover, the EC50 in the data set with Enterovirus A71 [3] is 58.2 µM.

Turning to `CCCCCCOc1cc(C(=O)NCCN(CC)CC)c2ccccc2n1`, the selectivity ratio in data set [1] amounted to 8. Besides, the cytotoxic concentration (CC50) with RD [2] came out at 33.6 µM. Also, the EC50 in the data set on Enterovirus A71 [3] was 4.21 µM.

One may read the CC50 as the concentration at which the toxic effect on the cells reaches its halfway point. Usually EC50 stands for the concentration needed to bring the measured effect to its halfway point.
